Consider 2 compounds from publication PMC4188250 (Biochemistry, 2014).

Where two headings read alike, the source gives them in different places.

For orientation: Kd means the equilibrium constant for the complex coming apart. Lower therefore signals higher affinity.

The target of experiment [1] is T1, Cytochrome P450 4A11 (Homo sapiens, UniProt Q02928).
T1 sequence (Q02928 5-519): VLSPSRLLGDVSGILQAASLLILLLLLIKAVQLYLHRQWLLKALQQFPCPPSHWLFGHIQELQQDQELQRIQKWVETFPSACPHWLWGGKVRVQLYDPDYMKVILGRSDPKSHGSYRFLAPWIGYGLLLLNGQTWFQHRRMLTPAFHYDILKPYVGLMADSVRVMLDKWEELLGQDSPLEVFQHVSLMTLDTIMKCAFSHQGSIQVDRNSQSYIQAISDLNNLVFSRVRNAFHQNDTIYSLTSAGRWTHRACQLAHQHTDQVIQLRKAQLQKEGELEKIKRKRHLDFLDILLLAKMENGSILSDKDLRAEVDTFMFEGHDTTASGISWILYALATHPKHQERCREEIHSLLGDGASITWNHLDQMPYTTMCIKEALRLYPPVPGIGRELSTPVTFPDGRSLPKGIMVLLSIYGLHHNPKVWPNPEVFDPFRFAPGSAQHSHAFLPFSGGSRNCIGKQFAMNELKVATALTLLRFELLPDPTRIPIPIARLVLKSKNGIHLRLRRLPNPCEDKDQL
Briefly: UV-visible spectral binding titration.

Experiment [2] has as its target T1, Cytochrome P450 4A11. Briefly: UV-visible spectral binding titration. The source holds these as a separate data set.

Take `CCCCCCCCCCCC(=O)O` [lauric acid, dodecanoic acid]: at Cytochrome P450 4A11 [1], binding was characterised by a dissociation constant (Kd) of 6.7 ± 0.3 µM.
Turning to `O=C(O)CCCCCCCCCCCO` [12-OH lauric acid], the affinity on Cytochrome P450 4A11 [2], expressed as Kd, was 5.1 ± 2.1 µM.
